Data: patent publication US11325907B2, “Crystal form of 1H-imidazo[4,5-b]pyridine-2(3H)-one compound and preparation process therefor” (MEDSHINE DISCOVERY INC., priority 2018, dated 2022)

Experiments:
Format in all cases: physicochemical
[1] = Stability tests of Crystal Form A in different solvents; details: for Status (after 2 days): 50 mg, stirred at 40° C. for 2 days
Experimental: The solids in all samples were collected and dried in vacuum drying oven (40° C.) overnight. The crystal forms were tested for XRPD.

[2] = Hygroscopicity test (Dynamic Vapor Sorption); details: 25° C. and 80% RH, DVS
Experimental: Device: SEM Advantage-1 Dynamic Vapor Sorption apparatus
Testing conditions: The sample (10-20 mg) is placed in DVS sample disk for testing.
Balance: dm/dt=0.01%/min (min: 10 min, max: 180 min)
Drying: drying at 0% RH for 120 min
RH (%) testing gradient: 10%
RH (%) testing gradient range: 0% -90%-0%
The hygroscopicity is categorized as follows:
SEM DVS Advantage-1 Dynamic Vapor Sorption instrument

[3] = Solid stability test under accelerated conditions (40° C./Relative Humidity 75%, sealed)
Experimental: (§1) Content Determination Method
(§2) Device: Agilent 1260 High Performance Liquid Chromatograph with DAD detector or Shimadzu LC-20A High Performance Liquid Chromatograph with PDA detector
(§3) Detailed Chromatographic parameters are as follows:
(§4) Chromatographic column: Agilent Eclipse plus C18 (4.6 mm×150 mm, 3.5 μm)
(§5) Column temperature: 40° C.
(§6) Detecting wavelength: 230 nm
(§7) Mobile Phase A: 0.04% trifluoroacetic acid aqueous solution (V/V)
(§8) Mobile Phase B: acetonitrile
(§9) Diluent: acetonitrile: purified water=3:1 (v/v)
(§10) Probe Wash: acetonitrile: purified water=3:1 (v/v)
(§11) Gradient elution procedure: […]
(§12) Each layer of the low-density polyethylene bag was buckled and sealed respectively and then the bag was placed in an aluminum foil bag and heat-sealed. The samples were taken on the 1st, 2nd, 3rd and 6th months for testing, and the test results were compared with the initial test results of day 0.

[4] = Solid stability test under long-term conditions (25° C./Relative Humidity 60%, sealed)
Experimental: as §1, §2, §3, §4, §5, §6, §7, §8, §9, §10, §11
as §12, with “3rd, 6th, 9th, 12th” for “1st, 2nd, 3rd”, “18th” for “6th”, “testing” for “testing,”

[5] = Solid stability test under accelerated conditions (40° C./Relative Humidity 75%, sealed); details: 6th month
[6] = Batch 1, 40° C./Relative Humidity 75%, Sealed, 1st month
[7] = Batch 1, 40° C./Relative Humidity 75%, Sealed, 2nd month
[8] = Batch 1, 40° C./Relative Humidity 75%, Sealed, 3rd month
[9] = Batch 1, 40° C./Relative Humidity 75%, Sealed, 6th month
[10] = Batch 2, 40° C./Relative Humidity 75%, Sealed, 1st month
[11] = Batch 2, 40° C./Relative Humidity 75%, Sealed, 2nd month
[12] = Batch 2, 40° C./Relative Humidity 75%, Sealed, 3rd month
[13] = Batch 2, 40° C./Relative Humidity 75%, Sealed, 6th month
[14] = Batch 3, 40° C./Relative Humidity 75%, Sealed, 1st month
[15] = Batch 3, 40° C./Relative Humidity 75%, Sealed, 2nd month
[16] = Batch 3, 40° C./Relative Humidity 75%, Sealed, 3rd month
[17] = Batch 3, 40° C./Relative Humidity 75%, Sealed, 6th month
[18] = Batch 1, 25° C./Relative Humidity 60%, Sealed, 3rd month
[19] = Batch 1, 25° C./Relative Humidity 60%, Sealed, 6th month
[20] = Batch 1, 25° C./Relative Humidity 60%, Sealed, 9th month
[21] = Batch 1, 25° C./Relative Humidity 60%, Sealed, 12th month
[22] = Batch 1, 25° C./Relative Humidity 60%, Sealed, 18th month
[23] = Batch 2, 25° C./Relative Humidity 60%, Sealed, 3rd month
[24] = Batch 2, 25° C./Relative Humidity 60%, Sealed, 6th month
[25] = Batch 2, 25° C./Relative Humidity 60%, Sealed, 9th month
[26] = Batch 2, 25° C./Relative Humidity 60%, Sealed, 12th month
[27] = Batch 2, 25° C./Relative Humidity 60%, Sealed, 18th month
[28] = Batch 3, 25° C./Relative Humidity 60%, Sealed, 3rd month
[29] = Batch 3, 25° C./Relative Humidity 60%, Sealed, 6th month
[30] = Batch 3, 25° C./Relative Humidity 60%, Sealed, 9th month
[31] = Batch 3, 25° C./Relative Humidity 60%, Sealed, 12th month
[32] = Batch 3, 25° C./Relative Humidity 60%, Sealed, 18th month
[33] = Batch 1, 40° C./Relative Humidity 75%
[34] = Batch 3, 40° C./Relative Humidity 75%

Status (after 2 days) ([1]; Acetone 0.4 mL): Suspension
Status (after 2 days) ([1]; Acetone:Water (1:2) 0.4 mL): Suspension
Status (after 2 days) ([1]; Acetonitrile 0.4 mL): Suspension
Status (after 2 days) ([1]; Acetonitrile:Water (1:1) 0.4 mL): Suspension
Status (after 2 days) ([1]; Ethanol 0.4 mL): Suspension
Status (after 2 days) ([1]; Ethanol:Water (3:1) 0.4 mL): Suspension
Status (after 2 days) ([1]; Ethyl Acetate 0.4 mL): Suspension
Status (after 2 days) ([1]; Methanol 0.4 mL): Suspension
Status (after 2 days) ([1]; Methanol:Water (3:1) 0.4 mL): Suspension
Status (after 2 days) ([1]; Tetrahydrofuran 0.3 mL): Suspension
Stability in solvents (conclusion) ([1]; alcohol solvent, acetonitrile, acetone, ethyl acetate, tetrahydrofuran and mixed solvents with water): good stability
Hygroscopic Category [2]: no or little hygroscopicity
ΔW (hygroscopic weight gain) [2]: 0.08%
Appearance [3, 6]: White powder
Content [3, 6]: 99.3%
Total Impurity [3, 6]: 0.09%
Appearance [3, 7]: White powder
Content [3, 7]: 99.1%
Total Impurity [3, 7]: 0.09%
Appearance [3, 8]: White powder
Content [3, 8]: 99.5%
Total Impurity [3, 8]: 0.09%
Content [3, 9]: 100.1%
Total Impurity [3, 9]: 0.10%
Appearance ([3]; Batch 1, Day 0): White powder
Content ([3]; Batch 1, Day 0): 99.4%
Crystal Form (XRPD) ([3]; Batch 1, Day 0): Crystal Form A
Total Impurity ([3]; Batch 1, Day 0): 0.09%
Appearance [3, 10]: White powder
Content [3, 10]: 99.1%
Total Impurity [3, 10]: 0.11%
Appearance [3, 11]: White powder
Content [3, 11]: 99.0%
Total Impurity [3, 11]: 0.11%
Appearance [3, 12]: White powder
Content [3, 12]: 99.2%
Total Impurity [3, 12]: 0.10%
Appearance [3, 13]: White powder
Content [3, 13]: 100.5%
Crystal Form (XRPD) [3, 13]: Crystal Form A
Total Impurity [3, 13]: 0.12%
Appearance ([3]; Batch 2, Day 0): White powder
Content ([3]; Batch 2, Day 0): 99.4%
Crystal Form (XRPD) ([3]; Batch 2, Day 0): Crystal Form A
Total Impurity ([3]; Batch 2, Day 0): 0.10%
Appearance [3, 14]: White powder
Content [3, 14]: 98.8%
Total Impurity [3, 14]: 0.16%
Appearance [3, 15]: White powder
Content [3, 15]: 98.9%
Total Impurity [3, 15]: 0.16%
Appearance [3, 16]: White powder
Content [3, 16]: 99.2%
Total Impurity [3, 16]: 0.16%
Content [3, 17]: 100.0%
Total Impurity [3, 17]: 0.11%
Appearance ([3]; Batch 3, Day 0): White powder
Content ([3]; Batch 3, Day 0): 99.5%
Crystal Form (XRPD) ([3]; Batch 3, Day 0): Crystal Form A
Total Impurity ([3]; Batch 3, Day 0): 0.11%
Solid stability (conclusion) ([3]; accelerated conditions of 40° C./Relative Humidity 75%): good stability
Appearance [4, 18]: White powder
Content [4, 18]: 99.0%
Total Impurity [4, 18]: 0.09%
Appearance [4, 19]: White powder
Content [4, 19]: 101.4%
Crystal Form (XRPD) [4, 19]: Crystal Form A
Total Impurity [4, 19]: 0.09%
Appearance [4, 20]: White powder
Content [4, 20]: 99.6%
Total Impurity [4, 20]: 0.09%
Appearance [4, 21]: White powder
Content [4, 21]: 98.8%
Crystal Form (XRPD) [4, 21]: Crystal Form A
Total Impurity [4, 21]: 0.08%
Appearance [4, 22]: White powder
Content [4, 22]: 97.3%
Total Impurity [4, 22]: 0.10%
Appearance ([4]; Batch 1, Day 0): White powder
Content ([4]; Batch 1, Day 0): 99.4%
Crystal Form (XRPD) ([4]; Batch 1, Day 0): Crystal Form A
Total Impurity ([4]; Batch 1, Day 0): 0.09%
Appearance [4, 23]: White powder
Content [4, 23]: 100.5%
Total Impurity [4, 23]: 0.11%
Appearance [4, 24]: White powder
Content [4, 24]: 100.1%
Crystal Form (XRPD) [4, 24]: Crystal Form A
Total Impurity [4, 24]: 0.12%
Appearance [4, 25]: White powder
Content [4, 25]: 99.6%
Total Impurity [4, 25]: 0.11%
Appearance [4, 26]: White powder
Content [4, 26]: 98.2%
Crystal Form (XRPD) [4, 26]: Crystal Form A
Total Impurity [4, 26]: 0.09%
Appearance [4, 27]: White powder
Content [4, 27]: 99.1%
Total Impurity [4, 27]: 0.11%
Appearance ([4]; Batch 2, Day 0): White powder
Content ([4]; Batch 2, Day 0): 99.4%
Crystal Form (XRPD) ([4]; Batch 2, Day 0): Crystal Form A
Total Impurity ([4]; Batch 2, Day 0): 0.10%
Appearance [4, 28]: White powder
Content [4, 28]: 98.9%
Total Impurity [4, 28]: 0.16%
Appearance [4, 29]: White powder
Content [4, 29]: 98.5%
Crystal Form (XRPD) [4, 29]: Crystal Form A
Total Impurity [4, 29]: 0.12%
Appearance [4, 30]: White powder
Content [4, 30]: 99.2%
Total Impurity [4, 30]: 0.11%
Appearance [4, 31]: White powder
Content [4, 31]: 98.4%
Crystal Form (XRPD) [4, 31]: Crystal Form A
Total Impurity [4, 31]: 0.10%
Appearance [4, 32]: White powder
Content [4, 32]: 99.7%
Total Impurity [4, 32]: 0.17%
Appearance ([4]; Batch 3, Day 0): White powder
Content ([4]; Batch 3, Day 0): 99.5%
Crystal Form (XRPD) ([4]; Batch 3, Day 0): Crystal Form A
Total Impurity ([4]; Batch 3, Day 0): 0.11%
Solid stability (conclusion) ([4]; long-term conditions of 25° C./Relative Humidity 60%): good stability
Appearance [5, 33]: White powder
Crystal Form (XRPD) [5, 33]: Crystal Form A
Appearance [5, 34]: White powder
Crystal Form (XRPD) [5, 34]: Crystal Form A
Structure (SMILES): CCOc1cc([C@@H](CS(C)(=O)=O)n2c(=O)[nH]c3c(C)c(-c4ccccc4F)cnc32)ccc1OC [Crystal Form A of Compound 1]
